Measurements as given in PubChem BioAssay (NCI).
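1) Cells in 96-well plates. 2) Compound, 48 h, 5 concentrations. 3) Linear interpolation between surrounding doses. 4) Unreached endpoint = highest concentration. GI50 = concentration required for 50% inhibition of growth. TGI: total growth inhibition.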

Tests used:
Assay in all cases: NCI-60 cell line screen, 48 h
[1] = system: A498 renal
[2] = system: ACHN renal
[3] = system: SF-268 CNS
[4] = system: SNB-19 CNS
[5] = system: SW-620 colon
[6] = system: TK-10 renal
[7] = system: UO-31 renal
[8] = system: HCT-15 colon
[9] = system: DU-145 prostate
[10] = system: HS 578T breast

Structure (SMILES) | TGI [1] | TGI [2] | TGI [3] | TGI [4] | TGI [5] | TGI [6] | TGI [7] | TGI [8] | GI50 [2] | GI50 [9] | TGI [9] | GI50 [8] | GI50 [10] | TGI [10] | GI50 [3] | GI50 [4] | GI50 [5] | GI50 [6] | GI50 [7] | GI50 [1]
O=C(/C=C/c1ccccc1O)c1cccnc1 | > 100 µM | > 100 µM | > 100 µM | > 100 µM | > 100 µM | > 100 µM | > 100 µM | – | – | – | – | – | – | – | – | – | – | – | – | –
Nc1ccc2c(c1)CC1c3ccccc3C(C2)c2ccccc21 | > 100 µM | > 100 µM | > 100 µM | > 100 µM | > 100 µM | > 100 µM | > 100 µM | > 100 µM | – | – | – | – | – | – | – | – | – | – | – | –
COc1cc2ccnc(-c3c4ccccc4c(N)c4c(OC)c(OC)ccc34)c2cc1OC | 8.89 µM | 14 µM | 18.6 µM | 15.4 µM | 13.1 µM | 22.2 µM | 13.5 µM | – | – | – | – | – | – | – | – | – | – | – | – | –
O=C(O)CCCCCO | > 100 µM | > 100 µM | > 100 µM | > 100 µM | > 100 µM | > 100 µM | > 100 µM | > 100 µM | – | – | – | – | – | – | – | – | – | – | – | –
CC1=C(C(=O)CC(=O)C(=O)Nc2ccccc2)Sc2ccccc2N1 | > 100 µM | > 100 µM | > 100 µM | > 100 µM | > 100 µM | – | > 100 µM | > 100 µM | – | – | – | – | – | – | – | – | – | – | – | –
COc1ccc2[nH]c(=O)c(/C=C/C(=O)/C=C/c3ccc(O)c(OC)c3)cc2c1 | – | 3.13 µM | 7.14 µM | 3.92 µM | 3.33 µM | 5.72 µM | 2.79 µM | 3.81 µM | 1.68 µM | 1.69 µM | 3.5 µM | 1.41 µM | 3.81 µM | > 100 µM | 2.25 µM | 1.67 µM | 1.13 µM | 2.29 µM | 1.47 µM | –
N#CCN1CCOCCOCCN(CC#N)CCOCCOCC1 | > 100 µM | > 100 µM | > 100 µM | > 100 µM | > 100 µM | > 100 µM | > 100 µM | > 100 µM | – | – | – | – | – | – | – | – | – | – | – | –
CCOC(=O)N1N=NC2C3OC(C[C@@]3(C#N)OC(C)=O)[C@H]21 (some centres undefined) | – | > 100 µM | > 100 µM | > 100 µM | > 100 µM | > 100 µM | > 100 µM | > 100 µM | – | – | – | – | – | – | – | – | – | – | – | –
COc1cc2ccnc3c2c(c1OC)-c1ccc(=O)ccc1-3 | – | 44.6 µM | > 100 µM | > 100 µM | > 100 µM | 83.5 µM | > 100 µM | 77.1 µM | 19.3 µM | 28.8 µM | > 100 µM | 22.5 µM | 36.6 µM | > 100 µM | 39.1 µM | 55.3 µM | 13.9 µM | 35.1 µM | 30 µM | –
CC(=O)C1C(=O)C(=O)N(c2ccccc2N2C(=O)C(=O)C(C(C)=O)C2=O)C1=O (centres undefined) | > 100 µM | > 100 µM | > 100 µM | > 100 µM | > 100 µM | > 100 µM | > 100 µM | > 100 µM | – | – | – | – | – | – | – | – | – | – | – | –
O=C(Nc1ccccc1)NS(=O)(=O)c1ccc(N2N=C3c4ccccc4CC3C2c2ccccn2)cc1 (centres undefined) | – | 68.8 µM | > 100 µM | > 100 µM | > 100 µM | 45.6 µM | > 100 µM | > 100 µM | 23.6 µM | 36.2 µM | > 100 µM | 23.1 µM | 40.7 µM | > 100 µM | 62.1 µM | 83.9 µM | 34 µM | 11.7 µM | 48.8 µM | –
CC[C@H](C)[C@H](NC(=O)Nc1ccccc1)C(=O)N(C)[C@H](C[C@@H](OC(C)=O)c1nc(C(=O)N[C@@H](Cc2ccccc2)C[C@H](C)C(=O)OC)cs1)C(C)C | – | > 100 µM | > 100 µM | > 100 µM | > 100 µM | > 100 µM | > 100 µM | > 100 µM | 8.09 µM | 3.94 µM | > 100 µM | 3.58 µM | 2.47 µM | 8.73 µM | 5.13 µM | 5.05 µM | 3.58 µM | 9.56 µM | 6.82 µM | –
COc1cc(/C=C/c2ccc(OC(C)=O)cc2)cc(OC)c1OC | 71.8 µM | 78.6 µM | > 100 µM | > 100 µM | > 100 µM | > 100 µM | 56.1 µM | > 100 µM | – | – | – | – | – | – | – | – | – | – | – | –
Cc1ccc(S(=O)(=O)SCc2ccccc2CSS(=O)(=O)c2ccc(C)cc2)cc1 | > 100 µM | > 100 µM | > 100 µM | > 100 µM | 31.8 µM | > 100 µM | > 100 µM | 48.6 µM | – | – | – | – | – | – | – | – | – | – | – | –
COc1cc2c(c(OC)c1OC)-c1ccc(SC)c(=O)cc1[C@@H](NCc1cccc(C#N)c1)CC2 | 0.0732 µM | > 75 µM | – | > 75 µM | > 75 µM | > 75 µM | > 75 µM | – | 0.0134 µM | – | – | < 0.0075 µM | – | – | < 0.0075 µM | < 0.0075 µM | < 0.0075 µM | 16.2 µM | < 0.0075 µM | –
CCC[CH2][Ge]([CH2]CCC)([CH2]CCC)[O]C(=O)C(O)c1ccccc1 (centres undefined) | 26.8 µM | 19.8 µM | > 65.1 µM | > 63.7 µM | 20.4 µM | > 100 µM | 15.8 µM | 14.2 µM | 4.23 µM | – | – | 1.78 µM | – | – | 6.74 µM | 18.5 µM | 4.09 µM | 18 µM | 0.885 µM | 11.7 µM
CC(=O)Nc1ccccc1-c1cnc2ccccc2n1 | > 100 µM | > 100 µM | > 100 µM | > 100 µM | > 100 µM | > 100 µM | – | > 100 µM | – | – | – | – | – | – | – | – | – | – | – | –
O=Cc1ccc(Oc2c3ccccc3nc3occc23)cc1 | – | – | 40.8 µM | > 100 µM | – | 21 µM | > 100 µM | – | – | 17.6 µM | 43.7 µM | – | 13.4 µM | 51.6 µM | 15.5 µM | 28.8 µM | – | 3.83 µM | 26.4 µM | –
CC(=O)OC1C/C(C)=C/CCC(C)/C=C/C2(C)CCC(C(C)(C)O)C12 (centres undefined) | > 100 µM | > 100 µM | > 100 µM | > 100 µM | > 100 µM | > 100 µM | > 100 µM | > 100 µM | – | – | – | – | – | – | – | – | – | – | – | –
